The target in experiment [1] is T1, Programmed cell death 1 ligand 1 (Homo sapiens, UniProt Q9NZQ7). As to the kind of experiment: Binding affinity to human recombinant PD-L1 by surface plasmon resonance assay.
For another experiment, the system named is NCI-H460. As to the kind of experiment: Antitumor activity in human NCI-H460 cells xenografted Balb/c mouse assessed as reduction in tumor mass at 4 mg/kg,sc administrated upto 72 hrs. It counts as functional. The arrangement: scale not given: the % may be the effect or the level left. On the technique in general: In xenograft studies the graft and the host belong to different species.

Experiment [2] has as its target T2, Programmed cell death protein 1/Programmed cell death 1 ligand 1 (Homo sapiens, UniProt Q15116+Q9NZQ7). In words: Inhibition of PD-1/PD-L1 interaction (unknown origin) by HTRF binding assay. The format is protein-complex assay. Background: In TR-FRET formats the signal depends on donor and acceptor labels being close together.
Experiment [3] deals with T2, Programmed cell death protein 1/Programmed cell death 1 ligand 1. In words: Inhibition of recombinant human PD-1/PD-L1 interaction incubated for 40 mins by HTRF binding assay. The format is protein-complex assay.
Experiment [4] has the same target. As to the kind of experiment: Inhibition of PD-1/PD-L1 interaction (unknown origin) incubated for 15 mins by HTRF assay. It counts as protein-complex assay.
Experiment [5] is described as follows: Cytoprotective activity against mouse PD-1 stimulated T cell assessed as rescue of PD-1 stimulated inhibition of IFN-gamma production by ELISA. It counts as functional, cell-based. On the technique in general: In an ELISA, binding on a coated surface is turned into a signal by an enzyme label.
Experiment [6] addresses T2, Programmed cell death protein 1/Programmed cell death 1 ligand 1. As to the kind of experiment: Inhibition of PD-1/PD-L1 interaction (unknown origin). It counts as protein-complex assay.
Experiment [7] concerns Splenocyte. As to the kind of experiment: Rescue of cell viability in mouse PD-L1 stimulated splenocyte at 100 nM incubated for 72 hrs by CFSE proliferation assay. The format is functional.
The subject of experiment [8] is Splenocyte. In words: Cytoprotective activity against mouse splenocyte co-cultured with MDA-MB-231 cells overexpressing PD-L1 assessed as rescue of cell proliferation at 100 nM by cell proliferation assay. It counts as functional.
Experiment [9] in a line: Cytoprotective activity against rat PMA-stimulated PBMC cells expressing PD-1 co-cultured with human MDA-MB-231 cells expressing PD-L1 assessed as rescue of cell proliferation by cell proliferation assay. The format is functional, cell-based.
Experiment [10] in a line: Cytoprotective activity against rat PMA-stimulated PBMC cells expressing PD-1 co-cultured with human HEK293 cells expressing PD-L2 assessed as rescue of cell proliferation by cell proliferation assay. The format is functional, cell-based.
For experiment [11], the system named is B16-F10. As to the kind of experiment: Antitumor activity in mouse B16-F10 cells xenografted mouse model assessed as tumor growth inhibition at 15 mg/kg,sc. The format is functional.
Experiment [12] deals with T2, Programmed cell death protein 1/Programmed cell death 1 ligand 1. In words: Inhibition of PD-1/PD-L1 interaction (unknown origin) incubated for 1 to 24 hrs by HTRF assay. It counts as protein-complex assay.
Experiment [13] shares this target. As to the kind of experiment: Inhibition of human PD-1/PD-L1 interaction by HTRF binding assay. It counts as protein-complex assay.
The target of experiment [14] is T1, Programmed cell death 1 ligand 1. In words: Inhibition of PD-L1 (unknown origin).
For experiment [15], the target named is T3, V-type immunoglobulin domain-containing suppressor of T-cell activation (Homo sapiens, UniProt Q9H7M9).
T3 sequence (Q9H7M9 whole entry): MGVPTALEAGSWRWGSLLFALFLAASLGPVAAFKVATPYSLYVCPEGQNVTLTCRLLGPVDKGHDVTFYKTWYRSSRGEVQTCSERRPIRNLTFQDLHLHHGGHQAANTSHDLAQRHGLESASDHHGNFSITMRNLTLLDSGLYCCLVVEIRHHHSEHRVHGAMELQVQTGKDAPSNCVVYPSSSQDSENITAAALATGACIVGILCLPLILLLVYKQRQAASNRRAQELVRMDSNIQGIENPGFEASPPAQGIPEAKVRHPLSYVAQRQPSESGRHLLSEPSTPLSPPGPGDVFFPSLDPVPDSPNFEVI
As to the kind of experiment: Inhibition of VISTA (unknown origin).

For experiment [16], the system named is B16-F10. In words: Antitumor activity in mouse B16-F10 cells xenografted mouse lung metastasis model assessed as reduction in lung metastasis. The format is functional. Also on record: scale not given: the % may be the effect or the level left.
The next experiment concerns CT26. As to the kind of experiment: Antitumor activity against mouse CT26 cells xenografted BALB/c mouse assessed as reduction in tumor growth. It counts as functional. The arrangement: scale not given: the % may be the effect or the level left.

Square brackets hold non-standard residues; d marks the D form. Peptide text beside a SMILES is read from it. * marks the point of attachment. ξ: configuration not given here. X1 = NC(CO)C(=O)NC(Cc1ccccc1)C(=O)NCCCCN*; ξE = NC(CCC(=O)O)C(=O)O Some results are limits rather than exact numbers.

T1 sequence (Q9NZQ7 whole entry): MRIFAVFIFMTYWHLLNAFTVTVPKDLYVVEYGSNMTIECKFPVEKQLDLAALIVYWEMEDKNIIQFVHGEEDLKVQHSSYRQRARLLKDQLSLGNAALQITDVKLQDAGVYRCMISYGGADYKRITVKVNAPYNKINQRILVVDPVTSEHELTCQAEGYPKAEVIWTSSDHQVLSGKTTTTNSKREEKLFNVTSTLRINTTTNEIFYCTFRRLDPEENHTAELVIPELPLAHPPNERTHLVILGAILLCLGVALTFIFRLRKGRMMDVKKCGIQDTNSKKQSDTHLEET
T2 sequence (Q15116 whole entry): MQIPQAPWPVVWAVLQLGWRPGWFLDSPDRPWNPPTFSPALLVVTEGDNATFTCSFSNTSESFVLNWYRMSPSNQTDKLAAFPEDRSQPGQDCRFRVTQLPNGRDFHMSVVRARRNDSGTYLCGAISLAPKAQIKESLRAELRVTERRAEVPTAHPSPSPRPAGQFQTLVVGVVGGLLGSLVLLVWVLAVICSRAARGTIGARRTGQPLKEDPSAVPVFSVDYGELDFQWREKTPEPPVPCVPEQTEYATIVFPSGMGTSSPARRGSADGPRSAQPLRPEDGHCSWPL
T2 sequence (Q9NZQ7 whole entry): as the sequence (Q9NZQ7 whole entry) above

As for `C[C@H](NC(=O)[C@H](Cc1ccc(O)cc1)NC(=O)[C@H](CCC(N)=O)NC(=O)CNC(=O)[C@@H](N)CO)C(=O)N[C@@H](CO)C(=O)N[C@@H](Cc1ccc(O)cc1)C(=O)N[C@@H](Cc1cnc[nH]1)C(=O)N[C@@H](CS)C(=O)N[C@@H](Cc1c[nH]c2ccccc12)C(=O)N[C@@H](CS)C(=O)N[C@@H](Cc1c[nH]c2ccccc12)C(=O)N[C@@H](CCCNC(=N)N)C(=O)N[C@@H](CC(=O)O)C(=O)N1CCC[C@H]1C(=O)NCC(=O)N[C@@H](CCCNC(=N)N)C(=O)N[C@@H](CO)C(=O)NCC(=O)NCC(=O)N[C@@H](CO)C(=O)N[C@@H](CCCCN)C(=O)O` (H-SGQYASYHCWCWRDPGRSGGSK-OH), in [1], the dissociation constant Kd (as a rule, the concentration at which binding is half-saturated) was 94 nM. Besides, the Activity with NCI-H460 is recorded as 56%.
`Cc1c(COc2cc(OCc3cccc(C#N)c3)c(CN[C@@H](CO)C(=O)O)cc2Cl)cccc1-c1ccc2c(c1)OCCO2`: the IC50 (as a rule, the midpoint of a concentration-inhibition curve) in [2] came to 1.48 nM.
Take `N#Cc1c(NC(=O)c2ccc(CNCCO)cn2)cccc1-c1ccccc1`: the concentration for half-maximal inhibition (IC50) in [3] is less than 10 nM.
As for `CNC(=O)C[C@@H]1NC(=O)O[C@@H]([C@H](C)O)C(=O)NCCOCCOCC(=O)N[C@@H](CCO)c2noc1n2`, the IC50 in [4] is less than 10 nM.
As for `COc1cc(NS(=O)(=O)c2ccc(N)cc2)ncn1` [SULFAMONOMETHOXINE], in experiment [5], the IC50 was greater than 400 nM.
In [2], `Cc1c(COc2cc(OCc3cccc(C#N)c3)c(CN[C@H](CCO)C(=O)O)cc2Cl)cccc1-c1cccc(COc2cc(OCc3cccnc3)c(CN[C@@H](CCO)C(=O)O)cc2Cl)c1` came in with an IC50 of 0.04 nM.
Regarding `N#Cc1c(-c2ccccc2)cccc1N1CCC(NC2CCCOC2)CC1` (centres undefined), in experiment [6], the IC50 was less than 1000 nM.
`C[C@@H](O)[C@H](N)c1nnc([C@H](CCC(N)=O)NC(=O)N[C@@H](CO)C(=O)O)o1` gave an Activity in the experiment on Splenocyte [7] of 92%.
On the same count and under the same terms, for `C[C@@H](O)[C@H](N)c1noc([C@H](Cc2ccc(O)cc2)NC(=O)N2CCC[C@H]2C(=O)O)n1` the value was 99%.
As to `NCCCC[C@H](NC(=O)N[C@@H](CC(N)=O)C(=O)NNC(=O)[C@@H](N)CO)C(=O)O`, the Activity with Splenocyte [8] was found to be 87%.
Turning to `CC[C@H](C)[C@H](NC(=O)[C@H](CCC(N)=O)NC(=O)[C@H](C)NC(=O)[C@H](CCCCN)NC(=O)[C@H]1CCCN1C(=O)[C@H](C)NC(=O)[C@H](CC(C)C)NC(=O)[C@H](CCC(N)=O)NC(=O)[C@@H](NC(=O)[C@@H](NC(=O)[C@H](CCCNC(=N)N)NC(=O)[C@H](Cc1ccccc1)NC(=O)[C@H](CCCCNC(=O)[C@H](Cc1ccccc1)NC(=O)[C@H](CO)NC(=O)[C@H](CCC(=O)O)NC(=O)[C@H](CO)NC(=O)[C@@H](NC(=O)[C@H](CC(N)=O)NC(=O)[C@@H](N)CO)C(C)O)NC(=O)[C@H](Cc1ccccc1)NC(=O)[C@H](CO)NC(=O)[C@H](CCC(=O)O)NC(=O)[C@H](CO)NC(=O)[C@@H](NC(=O)[C@H](CC(N)=O)NC(=O)[C@@H](N)CO)[C@@H](C)O)C(C)C)[C@@H](C)O)C(=O)N[C@@H](CCCCN)C(=O)N[C@@H](CCC(=O)O)C(N)=O` (some centres undefined), the EC50 (commonly the concentration that produces a half-maximal response) in [9] turned out to be 0.41 nM; in [10], 0.72 nM.
`C[C@H](O)[C@@H]1NC(=O)NCc2nc(no2)[C@H](CO)NC(=O)COCCOCCNC1=O`: the 50% inhibitory concentration (IC50) in experiment [4] was less than 10 nM.
Turning to `C[C@H](O)[C@H](NC(=O)N[C@@H](CC(N)=O)C(=O)NNC(=O)[C@@H](N)CO)C(=O)O`, the figures for the EC50 in experiment [9] and in [10] were 30 nM and 40 nM, respectively. Also, the Activity with Splenocyte [8] was 87%; in the experiment on Splenocyte [7] it was 68%.
For the molecule H-GNWDYNSQRAQLYNQ-OH, in [1], the dissociation constant (Kd) turned out to be 1380 nM.
With `O=C(O)[C@H](CO)NCc1cc(Cl)c(OCc2cccc(-c3ccccc3)c2Br)cc1OCc1cccnc1`, in the experiment with B16-F10 [11], the inhibition in vivo (as a rule, the percentage by which the read-out fell short of the control) at 15 mg/kg worked out at 64.1%.
Turning to `Cc1c(-c2ccccc2)cccc1-c1nc2cc(CNCCO)ccc2o1`, the IC50 in experiment [6] was less than 1000 nM.
`Cc1c(/C=C/c2nc(CNC(C)(CO)C(=O)O)ccc2C(F)(F)F)cccc1-c1ccc2c(c1)OCCO2` (centres undefined) registered an IC50 in [12] of 18 nM.
For `Cc1c(NC(=O)c2cc(CN3CCCC[C@H]3C(=O)O)cn(C)c2=O)cccc1-c1ccccc1`, the 50% inhibitory concentration (IC50) in experiment [3] is less than 100 nM.
Molecule `COc1nc(OCc2cccc(-c3cccc(COc4ccc(CNCCNC(C)=O)c(OC)n4)c3C)c2C)ccc1CNCCNC(C)=O` returned an IC50 in experiment [13] of 125 nM.
In turn, `C[C@H](O)[C@@H]1NC(=O)N[C@H](C(N)=O)C(=O)NNC(=O)[C@H](CO)NC(=O)CCOCCOCCNC1=O` came in with an Activity in the experiment with Splenocyte [7] of 95%.
Turning to `C[C@H](O)[C@H](NC(=O)N[C@@H](CC(N)=O)c1nnc([C@@H](N)CO)s1)C(=O)O`, the IC50 worked out at 37 nM in experiment [14] and 17 nM in [15].
Turning to `C[C@@H](O)[C@@H]1NC(=O)C(N[C@@H](CO)C(=O)O)CCC(=O)NCCCCC(C(=O)N[C@@H](CO)C(=O)N[C@@H](Cc2ccccc2)C(N)=O)NC(=O)[C@H](CO)NC1=O` (some centres undefined), in the experiment with B16-F10 [16], the Activity stood at 54%.
`C[C@H](O)[C@@H]1NC(=O)CCOCCOCCNC(=O)[C@H](CO)NC(=O)N[C@H](C(N)=O)C(=O)NNC1=O` returned an Activity in the experiment with Splenocyte [7] of 94%.
Regarding `C[C@@H](O)[C@H](NC(=O)[C@H](CC(N)=O)NC(=O)[C@@H](N)CO)C(=O)N[C@@H](CO)C(=O)NC(CCC(=O)NCCCCNC(=O)C(Cc1ccccc1)NC(=O)C(N)CO)C(N)=O` (some centres undefined) (H-SNTS[ξE](X1)-NH2), the Activity in the experiment with B16-F10 [16] stood at 64%.
As for `CC(O)[C@H](N)c1nnc([C@]2(NC(=O)N[C@@H](CO)C(=O)O)C[C@H](CC#N)C2)o1` (some centres undefined), the Activity with CT26 was found to be 63.7%.
Consider `Cc1cc(CN[C@@H](CO)C(=O)O)c(OCc2cncc(C#N)c2)cc1OCc1cccc(-c2ccc3c(c2)OCCO3)c1C`, for which the 50% inhibitory concentration (IC50) in experiment [2] was found to be 2.25 nM.
The molecule `Cc1c(COc2cc(OCc3cncc(C#N)c3)c(CN[C@@H](CO)C(=O)O)cc2Cl)cccc1-c1cccc(OCCCN2CCC(O)CC2)c1` came in with an IC50 in experiment [2] of 0.48 nM.
In turn, `COc1cc(/C=C/c2cccc(-c3ccccc3)c2)cc(OC)c1CN[C@](C)(CO)C(=O)O` displayed a half-maximal inhibitory concentration (IC50) in experiment [12] of 48 nM.

The record behind these values is ChEMBL document CHEMBL5096155, “Recent advance of peptide-based molecules and nonpeptidic small-molecules modulating PD-1/PD-L1 protein-protein interaction or targeting PD-L1 protein degradation” (Eur J Med Chem, 2021).
